ChEMBL document CHEMBL1201862, “PubChem BioAssay data set” (2004)
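Step 1: Grow cells in 96-well plates. Step 2: Expose to compound for 48 hours at 5 concentrations. Step 3: Interpolate endpoints linearly; if unreached, use highest concentration. GI50 is the concentration that inhibits growth by half.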 Calls of active or inactive are those of the source. Cut-off read from the data, not from the text of the source: active = GI50 up to about 1.1 µM and inactive = higher.

Key:
Experiment in all cases: NCI-60 cell line screen, 48 h
A498 = tested on: A498
COLO 205 = tested on: COLO 205
SF-268 = tested on: SF-268
MDA-MB-435 = tested on: MDA-MB-435
NCI-H23 = tested on: NCI-H23
HL-60 = tested on: HL-60
UACC-62 = tested on: UACC-62
RXF 393 = tested on: RXF 393
OVCAR-4 = tested on: OVCAR-4
LOX IMVI = tested on: LOX IMVI
SW-620 = tested on: SW-620
UO-31 = tested on: UO-31
SF-539 = tested on: SF-539
BT-549 = tested on: BT-549
HOP-62 = tested on: HOP-62
SK-MEL-2 = tested on: SK-MEL-2
SNB-19 = tested on: SNB-19
EKVX = tested on: EKVX
SNB-75 = tested on: SNB-75
M14 = tested on: M14
SK-OV-3 = tested on: SK-OV-3
SF-295 = tested on: SF-295
NCI-H460 = tested on: NCI-H460
OVCAR-3 = tested on: OVCAR-3
NCI-H522 = tested on: NCI-H522
SK-MEL-5 = tested on: SK-MEL-5
HOP-92 = tested on: HOP-92
HCT-116 = tested on: HCT-116
RPMI-8226 = tested on: RPMI-8226
A549 = tested on: A549
IGROV-1 = tested on: IGROV-1
ACHN = tested on: ACHN
K562 = tested on: K562
UACC-257 = tested on: UACC-257
T47D = tested on: T47D
CAKI-1 = tested on: CAKI-1
HCT-15 = tested on: HCT-15
TK-10 = tested on: TK-10
HT-29 = tested on: HT-29
786-0 = tested on: 786-0
U-251 = tested on: U-251
NCI-H226 = tested on: NCI-H226
KM12 = tested on: KM12
CCRF-CEM = tested on: CCRF-CEM
HCC 2998 = tested on: HCC 2998
MDA-N = tested on: MDA-N
SN12C = tested on: SN12C
Hs-578T = tested on: Hs-578T
OVCAR-5 = tested on: OVCAR-5
DU-145 = tested on: DU-145
MOLT-4 = tested on: MOLT-4
SK-MEL-28 = tested on: SK-MEL-28
Malme-3M = tested on: Malme-3M
PC-3 = tested on: PC-3
MDA-MB-231 = tested on: MDA-MB-231
MCF7 = tested on: MCF7
SR = tested on: SR
OVCAR-8 = tested on: OVCAR-8

Measured: GI50

CCOC(=O)c1cc2cc(C)cc(C(=O)c3ccc([N+](=O)[O-])cc3)c2[nH]1
> 100 µM: HCT-15
inactive: A498 > 100 µM | COLO 205 > 100 µM | SF-268 > 100 µM | MDA-MB-435 > 100 µM | NCI-H23 > 100 µM | HL-60 > 100 µM | UACC-62 > 100 µM | RXF 393 37.7 µM | OVCAR-4 > 100 µM | LOX IMVI > 100 µM | SW-620 > 100 µM | UO-31 > 100 µM | SF-539 > 100 µM | BT-549 > 100 µM | HOP-62 33.4 µM | SK-MEL-2 > 100 µM | SNB-19 > 100 µM | EKVX > 100 µM | SNB-75 51.6 µM | M14 > 100 µM | SK-OV-3 > 100 µM | SF-295 > 100 µM | NCI-H460 > 100 µM | OVCAR-3 > 100 µM | NCI-H522 > 100 µM | SK-MEL-5 > 100 µM | HOP-92 93.8 µM | HCT-116 > 100 µM | RPMI-8226 > 100 µM | A549 > 100 µM | IGROV-1 > 100 µM | ACHN > 100 µM | K562 > 100 µM | UACC-257 > 100 µM | T47D > 100 µM | CAKI-1 > 100 µM | TK-10 > 100 µM | HT-29 > 100 µM | 786-0 86.7 µM | U-251 26.6 µM | NCI-H226 > 100 µM | KM12 > 100 µM | CCRF-CEM > 10 µM | HCC 2998 > 100 µM | MDA-N > 100 µM | SN12C > 100 µM | Hs-578T 41.2 µM | OVCAR-5 > 100 µM | DU-145 > 100 µM | MOLT-4 > 100 µM | SK-MEL-28 > 100 µM | Malme-3M > 100 µM | PC-3 > 100 µM | MDA-MB-231 38.5 µM | MCF7 > 100 µM

O=C1CC(C(COCc2ccccc2)OCc2ccccc2)CC(=O)N1 (stereo not given)
> 100 µM: HCT-15
inactive: SF-268 > 100 µM | MDA-MB-435 > 100 µM | NCI-H23 > 100 µM | HL-60 > 100 µM | LOX IMVI > 100 µM | SW-620 > 100 µM | UO-31 > 100 µM | SF-539 > 100 µM | BT-549 45 µM | HOP-62 > 100 µM | SNB-19 > 100 µM | EKVX > 100 µM | M14 > 100 µM | SF-295 > 100 µM | OVCAR-3 > 100 µM | NCI-H522 > 100 µM | SK-MEL-5 > 100 µM | HOP-92 > 100 µM | HCT-116 > 100 µM | RPMI-8226 > 100 µM | A549 > 100 µM | IGROV-1 > 100 µM | ACHN > 100 µM | K562 > 100 µM | UACC-257 > 100 µM | T47D 86.3 µM | CAKI-1 > 100 µM | TK-10 > 100 µM | HT-29 > 100 µM | 786-0 > 100 µM | U-251 > 100 µM | NCI-H226 > 100 µM | KM12 > 100 µM | CCRF-CEM > 100 µM | HCC 2998 > 100 µM | SR > 100 µM | MDA-N > 100 µM | SN12C > 100 µM | Hs-578T > 100 µM | OVCAR-5 > 100 µM | OVCAR-8 > 100 µM | DU-145 > 100 µM | MOLT-4 > 100 µM | SK-MEL-28 > 100 µM | Malme-3M > 100 µM | PC-3 83.2 µM | MDA-MB-231 > 100 µM | MCF7 > 100 µM
